In PubChem BioAssay (NCI):
Values joined by “and” are separate entries in the source; they are usually repeats but may differ in a detail not shown here. Equal values may be shown once.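 Cultured in 96-well plates, cells were exposed to test compound for 48 hours across five concentrations. GI50 marks 50% less growth. The concentration for full growth arrest is given as TGI.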

Columns and labels:
Test in all cases: growth of human tumour cells (NCI), 48 h
HCT-15 colon = test system: HCT-15 colon
M14 melanoma = test system: M14 melanoma
HOP-62 NSCLC = test system: HOP-62 NSCLC
NCI-H23 lung = test system: NCI-H23 lung
NCI-H522 lung = test system: NCI-H522 lung
TK-10 renal = test system: TK-10 renal
SF-539 CNS = test system: SF-539 CNS
K-562 leukemia = test system: K-562 leukemia
MALME-3M melanoma = test system: MALME-3M melanoma
LOX IMVI melanoma = test system: LOX IMVI melanoma
EKVX NSCLC = test system: EKVX NSCLC
CCRF-CEM leukemia = test system: CCRF-CEM leukemia
A498 renal = test system: A498 renal
HCC-2998 colon = test system: HCC-2998 colon
DU-145 prostate = test system: DU-145 prostate
PC-3 prostate = test system: PC-3 prostate
MCF7 breast = test system: MCF7 breast

SMILES	TGI (HCT-15 colon) [µM]	TGI (M14 melanoma) [µM]	TGI (HOP-62 NSCLC) [µM]	TGI (NCI-H23 lung) [µM]	TGI (NCI-H522 lung) [µM]	TGI (TK-10 renal) [µM]	TGI (SF-539 CNS) [µM]	TGI (K-562 leukemia) [µM]	TGI (MALME-3M melanoma) [µM]	TGI (LOX IMVI melanoma)	TGI (EKVX NSCLC) [µM]	TGI (CCRF-CEM leukemia) [µM]	TGI (A498 renal) [µM]	TGI (HCC-2998 colon) [µM]	TGI (DU-145 prostate) [µM]	TGI (PC-3 prostate) [µM]	TGI (MCF7 breast) [µM]	GI50 (HCC-2998 colon) [µM]	GI50 (LOX IMVI melanoma) [µM]	GI50 (CCRF-CEM leukemia) [µM]
CCN(CC)C(=O)CCn1ccc(=O)[nH]c1=O	> 100	> 100	> 100	> 100	> 100	> 100	> 100	> 100	> 100	> 100 µM	> 100	> 100	–	–	–	–	–	–	–	–
N#CC(C#N)=c1c(=O)c2c3ccccc3cc3cccc1c32	> 100	> 100	> 100	> 100	–	–	–	–	–	> 100 µM	–	> 100	> 100	> 100	> 100	> 100	–	–	–	–
O=C1CSC(c2c[nH]c3ccccc23)N1c1cccc(Cl)c1 (stereo not drawn)	> 100	> 100	> 100	> 100	–	> 100	> 100	> 100	–	–	> 100	> 100	> 100	> 100	> 100	–	> 100	–	–	–
CSC(=S)CC(O)[C@@H]1CC2c3ccccc3C1c1ccccc12 (stereo partly drawn)	25.6	27	38.2	22.2	10.9	30.7	37.8	30.4	39.1	54.6 µM	–	10.6	37.3	28.2	30.8	48.6	62.1	–	–	–
COc1cc2c(cc1OS(C)(=O)=O)N=C[C@@H]1CCCN1C2=O	> 100	> 100	–	> 100	> 100	> 100	> 100	–	> 100	> 100 µM	> 100	> 100	> 100	> 100	> 100	–	> 100	–	–	–
CC(=O)OCC1OC(n2c3c(c(-c4ccc(C)cc4)c(C#N)c2=S)C(=O)CC(C)(C)C3)C(OC(C)=O)C(OC(C)=O)C1OC(C)=O (stereo not drawn)	–	> 100	> 100	> 100	> 100	> 100	67.2	95.3	> 100	26.2 µM	–	> 100	> 100	–	> 100	60	> 100	–	–	–
CC1(C)CNC(=O)C2(CCCO2)CNC(C)(C)CNC(=O)C2(CCCO2)CN1 (stereo not drawn)	> 10	> 10	> 10	> 10	> 10	> 10	> 10	> 10	> 10	> 10 µM	–	> 10	–	> 10	> 10	> 10	> 10	–	–	–
CC(=O)OCC1OC(N2C(=O)[C@@H](Oc3ccccc3)[C@H]2/C=C/c2ccccc2)C(OC(C)=O)C(OC(C)=O)C1OC(C)=O (stereo partly drawn)	> 100	> 100	> 100	> 100	> 100	> 100	> 100	> 100	> 100	> 100 µM	> 100	> 100	> 100	> 100	–	–	–	–	–	–
O=C(Cc1ccccc1)NN1C(=O)C(Cl)C1c1ccc(Cl)cc1 (stereo not drawn)	> 100	> 100	> 100	> 100	> 100	> 100	–	> 100	> 100	> 100 µM	> 100	> 100	–	> 100	–	–	–	–	–	–
Cc1ccc(-c2n[nH]c(=O)n2/N=C\c2ccccc2O)cc1	> 100	> 100	> 100	> 100	> 100	> 100	> 100	> 100	> 100	–	> 100	> 100	–	> 100	> 100	> 100	> 100	–	–	–
O=C1CSCC(=O)Nc2ccccc2N1	> 100	> 100	> 100	> 100	> 100	> 100	> 100	> 100	> 100	> 100 µM	> 100	> 100	> 100	–	> 100	> 100	–	–	–	–
C=C=C[P+](c1ccccc1)(c1ccccc1)c1ccccc1	73.8	19.5	> 100	–	6	78.2	40.2	9.46	26.7	–	–	22.3	> 100	> 100	–	–	–	–	–	–
COC(=O)c1cc2ccc(O)c(O)c2cn1	40.4	34.6	36.2	32	37.9	34.6	33.5	8.16	27.5	5.43 µM and 3.31 µM	38.4	> 100	–	> 100	> 100	56.4	8.1	> 100	1.57	4.62
Brc1ccc(C2=NCSC(c3ccc(Br)cc3)=N2)cc1	> 100	> 100	> 100	> 100	58.4	53.8	99.2	> 100	> 100	70.9 µM	38.5	–	–	51	–	56.7	> 100	–	–	–
CCC(C)N1CN(c2ccccc2)C2(CCN(CC3COc4ccccc4O3)CC2)C1=O (stereo not drawn)	61.1	46.3	41.7	73.1	68.6	86.2	33.3	46.9	34.6	44.2 µM	64.1	64.5	–	38.8	59.8	87.3	49.6	–	–	–
Cc1cccc(Nc2nc3ccccc3nc2NS(=O)(=O)c2ccc(N)cc2)c1	> 100	> 100	> 100	53.3	> 100	> 100	93.9	> 100	> 100	> 100 µM	> 100	57.6	–	67.6	> 100	> 100	> 100	–	–	–

SMILES	TGI (HCT-15 colon) [µM]	TGI (M14 melanoma) [µM]	TGI (HOP-62 NSCLC) [µM]	TGI (NCI-H23 lung) [µM]	TGI (NCI-H522 lung) [µM]	TGI (TK-10 renal) [µM]	TGI (SF-539 CNS) [µM]	TGI (K-562 leukemia) [µM]	TGI (MALME-3M melanoma) [µM]	TGI (LOX IMVI melanoma)	TGI (EKVX NSCLC) [µM]	TGI (CCRF-CEM leukemia) [µM]	TGI (A498 renal) [µM]	TGI (HCC-2998 colon) [µM]	TGI (DU-145 prostate) [µM]	TGI (PC-3 prostate) [µM]	TGI (MCF7 breast) [µM]	GI50 (HCC-2998 colon) [µM]	GI50 (LOX IMVI melanoma) [µM]	GI50 (CCRF-CEM leukemia) [µM]
CC(C)[Si](OC12CCC(CC1O)CC2CO)(C(C)C)C(C)C (stereo not drawn)	27.1	28.4	29.9	25.4	–	27.5	38	> 100	–	–	–	31.6	32	–	35.5	24.1	24.4	–	–	–
CC1(OCc2ccccc2)C(=O)N2C1NCC2(C)C (stereo not drawn)	> 100	> 100	> 100	> 100	–	> 100	> 100	> 100	> 100	> 100 µM	> 100	> 100	> 100	> 100	–	–	–	–	–	–
O=C(c1ccc2ccccc2c1)C1(I)S(=O)(=O)OCCOS1(=O)=O	> 100	> 100	> 100	> 100	–	> 100	–	> 100	> 100	–	> 100	> 100	–	> 100	> 100	> 100	> 100	–	–	–
O=C(O)CN1CCSc2ccccc2CN(CC(=O)O)CCSc2ccccc2C1	> 100	> 100	> 100	> 100	> 100	> 100	> 100	> 100	> 100	> 100 µM	> 100	> 100	> 100	> 100	–	–	–	–	–	–
CCCCNC(=O)OCCN=c1c2ccccc2ccc2ccccc12	> 100	> 100	> 100	> 100	–	> 100	> 100	> 100	> 100	> 100 µM	> 100	> 100	–	> 100	> 100	> 100	> 100	–	–	–
N/N=c1/nc2n(c3ncccc13)C=CNN2	> 100	–	> 100	> 100	> 100	> 100	> 100	> 100	> 100	> 100 µM	> 100	> 100	–	> 100	–	–	–	–	–	–
COc1cc([C@@H]2c3cc4c(cc3[C@H](OC3OC5COC(c6ccco6)OC5C(O)C3O)C3COC(=O)[C@@H]32)OCO4)cc(OC)c1OC (stereo partly drawn)	> 100	> 100	> 100	> 79.4	> 57.3	> 100	> 100	–	> 100	> 100 µM	–	–	–	> 100	> 100	> 35.9	> 53.6	–	–	–
CC(C)OC(=O)NCCn1cc(-c2ccccc2)nn1	> 100	> 100	> 100	> 100	> 100	> 100	> 100	> 100	> 100	> 100 µM	> 100	> 100	–	> 100	> 100	> 100	> 100	–	–	–
CCCN(CCC)C(=S)Sc1nc(C)nc(N2CCN(c3nc(C)nc(SC(=S)N(CCC)CCC)c3[N+](=O)[O-])CC2)c1[N+](=O)[O-]	32.1	60.9	> 85	36.8	3.17	41.9	> 80.6	–	45.6	2.27 µM	> 83	8.55	–	43.6	> 100	53.4	11.9	–	–	–
O=C(O)c1cc(CCc2ccc(O)c(O)c2)ccc1O	> 100	> 100	> 100	> 100	> 100	–	> 100	45.8	> 100	–	–	> 100	> 100	> 100	> 100	> 100	> 100	–	–	–
CN(C)CCNc1ccc(NCC[N+](C)(C)Cc2ccc([N+](=O)[O-])cc2)c2c1C(=O)c1c(O)ccc(O)c1C2=O	> 100	–	> 100	> 100	–	–	–	> 100	–	> 100 µM	> 100	> 100	> 100	–	> 100	> 100	–	–	–	–
COC(=O)C(=O)C(C(=O)C(=O)Nc1ccc(Cl)c(Cl)c1)c1nc2ccc(C(=O)c3ccccc3)cc2[nH]c1=O (stereo not drawn)	–	> 100	> 100	> 100	> 100	> 100	> 100	12.9	> 100	> 100 µM	> 100	> 100	> 100	–	–	> 100	> 100	–	–	–
O=C(CNc1ccccc1[N+](=O)[O-])Nn1cnc2ccc(S(=O)(=O)Nc3ccccc3[N+](=O)[O-])cc2c1=O	> 100	> 100	> 100	> 100	> 100	> 100	> 100	> 100	> 100	> 100 µM	> 100	> 100	–	> 100	> 100	> 100	> 100	–	–	–
COC(=O)C(Cc1ccccc1)NC(=O)CSc1nnc(COc2ccc(Cl)cc2)n1-c1ccccc1 (stereo not drawn)	> 100	35.1	45	53.3	–	40	51.3	> 100	42.7	28.3 µM	–	63.3	56.1	31.8	> 100	59	58.5	–	–	–
O=C(CC(NC(=O)OCc1ccccc1)C(=O)NC1Cc2ccccc2C1=O)OCc1ccccc1 (stereo not drawn)	> 100	> 100	> 100	> 100	> 100	> 100	> 100	> 100	> 100	–	> 100	–	–	> 100	> 100	> 100	> 100	–	–	–
O=C1C(Cl)C(c2cccc([N+](=O)[O-])c2)N1n1cnc2ccccc2c1=O (stereo not drawn)	> 100	> 100	> 100	> 100	> 100	> 100	–	> 100	> 100	> 100 µM	> 100	–	–	> 100	–	–	–	–	–	–
